According to PubChem BioAssay AID248 (DTP/NCI, 2004):
Several values for one entry are separate records, joined by “and”; a condition that tells them apart may be missing. Identical values can stand only once. Toxic doses and inconclusive results are not listed. Rule as the data show it: active = T/C of 150% or more; inactive = T/C below 125%.

Tested on: L1210 leukemia ip in BDF1 mice, survival T/C
Assay: NCI In Vivo Anticancer Drug Screen. Data for tumor model L1210 Leukemia (intraperitoneal) in B6D2F1 (BDF1) mice
Details: higher = longer survival
Summary of the method: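 Survival endpoint. Drug-treated group vs vehicle group, expressed as T divided by C. Tumor passaged by transplantation.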

[1] = endpoint: mean survival time, dose: 100.0 mg/kg/injection, schedule: Q01DX009 (ip), vehicle: saline with Tween-80
[2] = endpoint: mean survival time, dose: 200.0 mg/kg/injection, schedule: Q01DX009 (ip), vehicle: saline with Tween-80
[3] = endpoint: mean survival time, dose: 400.0 mg/kg/injection, schedule: Q01DX009 (ip), vehicle: saline with Tween-80
[4] = endpoint: mean survival time, dose: 50.0 mg/kg/injection, schedule: Q04DX002 (ip), vehicle: Klucel (hydroxypropylcellulose) (HPC)
[5] = endpoint: mean survival time, dose: 100.0 mg/kg/injection, schedule: Q04DX002 (ip), vehicle: Klucel (hydroxypropylcellulose) (HPC)
[6] = endpoint: mean survival time, dose: 50.0 mg/kg/injection, schedule: Q01DX001 (ip), vehicle: carboxymethylcellulose (CMC)
[7] = endpoint: mean survival time, dose: 100.0 mg/kg/injection, schedule: Q01DX001 (ip), vehicle: carboxymethylcellulose (CMC)
[8] = endpoint: mean survival time, dose: 200.0 mg/kg/injection, schedule: Q01DX001 (ip), vehicle: carboxymethylcellulose (CMC)
[9] = endpoint: mean survival time, dose: 100.0 mg/kg/injection, schedule: Q04DX003 (ip), vehicle: saline with Tween-80
[10] = endpoint: mean survival time, dose: 200.0 mg/kg/injection, schedule: Q04DX003 (ip), vehicle: saline with Tween-80
[11] = endpoint: mean survival time, dose: 400.0 mg/kg/injection, schedule: Q04DX003 (ip), vehicle: saline with Tween-80
[12] = endpoint: mean survival time, dose: 100.0 mg/kg/injection, schedule: Q01DX001 (ip), vehicle: saline
[13] = endpoint: mean survival time, dose: 200.0 mg/kg/injection, schedule: Q01DX001 (ip), vehicle: saline
[14] = endpoint: mean survival time, dose: 400.0 mg/kg/injection, schedule: Q01DX001 (ip), vehicle: saline
[15] = endpoint: mean survival time, dose: 200.0 mg/kg/injection, schedule: Q04DX002 (ip), vehicle: Klucel (hydroxypropylcellulose) (HPC)
[16] = endpoint: mean survival time, dose: 400.0 mg/kg/injection, schedule: Q04DX002 (ip), vehicle: Klucel (hydroxypropylcellulose) (HPC)

Measured: T/C

c1cnc(OCCN2CC2)cn1
inactive: endpoint: mean survival time, dose: 25.0 mg/kg/injection, schedule: Q01DX001 (ip), vehicle: saline 115 % of control | endpoint: mean survival time, dose: 50.0 mg/kg/injection, schedule: Q01DX001 (ip), vehicle: saline 96 % of control

CCC1CCC(NC(=O)c2ccccc2)CC1 (stereo not drawn)
inactive: [1] 92 % of control | [2] 94 % of control | [3] 92 % of control

NC(=O)c1cccn1-c1ccc2ncccc2c1
inactive: endpoint: mean survival time, dose: 25.0 mg/kg/injection, schedule: Q04DX002 (ip), vehicle: Klucel (hydroxypropylcellulose) (HPC) 89 % of control | [4] 92 % of control | [5] 86 % of control

Cc1ccc(S(=O)(=O)OCC2OCOC2C2OCOC2CI)cc1 (stereo not drawn)
inactive: endpoint: mean survival time, dose: 100.0 mg/kg/injection, schedule: Q01DX001 (ip), vehicle: saline with Tween-80 101 % of control | endpoint: mean survival time, dose: 200.0 mg/kg/injection, schedule: Q01DX001 (ip), vehicle: saline with Tween-80 101 % of control | endpoint: mean survival time, dose: 400.0 mg/kg/injection, schedule: Q01DX001 (ip), vehicle: saline with Tween-80 93 % of control

N#CC1(Nc2ccc(S(N)(=O)=O)cc2)CCCC1
inactive: [6] 95 % of control | [7] 93 % of control | [8] 98 % of control

CCOC(=O)C1CCc2c(ccc3ccccc23)N1CCC#N (stereo not drawn)
inactive: endpoint: mean survival time, dose: 100.0 mg/kg/injection, schedule: Q01DX009 (ip), vehicle: carboxymethylcellulose (CMC) 95 % of control and 101 % of control | endpoint: mean survival time, dose: 100.0 mg/kg/injection, schedule: Q04DX002 (ip), vehicle: carboxymethylcellulose (CMC) 97 % of control | endpoint: mean survival time, dose: 100.0 mg/kg/injection, schedule: Q04DX003 (ip), vehicle: carboxymethylcellulose (CMC) 105 % of control | endpoint: mean survival time, dose: 200.0 mg/kg/injection, schedule: Q01DX009 (ip), vehicle: carboxymethylcellulose (CMC) 98 % of control and 88 % of control | endpoint: mean survival time, dose: 200.0 mg/kg/injection, schedule: Q04DX002 (ip), vehicle: carboxymethylcellulose (CMC) 91 % of control | endpoint: mean survival time, dose: 200.0 mg/kg/injection, schedule: Q04DX003 (ip), vehicle: carboxymethylcellulose (CMC) 101 % of control | endpoint: mean survival time, dose: 400.0 mg/kg/injection, schedule: Q01DX009 (ip), vehicle: carboxymethylcellulose (CMC) 97 % of control and 107 % of control | endpoint: mean survival time, dose: 400.0 mg/kg/injection, schedule: Q04DX002 (ip), vehicle: carboxymethylcellulose (CMC) 97 % of control | endpoint: mean survival time, dose: 400.0 mg/kg/injection, schedule: Q04DX003 (ip), vehicle: carboxymethylcellulose (CMC) 110 % of control

CN(C)C(=S)N=Nc1ccccc1
inactive: endpoint: mean survival time, dose: 50.0 mg/kg/injection, schedule: Q01DX009 (ip), vehicle: saline with Tween-80 92 % of control | endpoint: mean survival time, dose: 50.0 mg/kg/injection, schedule: Q01DX009 (ip), vehicle: saline 97 % of control | [1] 100 % of control | endpoint: mean survival time, dose: 100.0 mg/kg/injection, schedule: Q01DX009 (ip), vehicle: saline 100 % of control | [2] 100 % of control | endpoint: mean survival time, dose: 200.0 mg/kg/injection, schedule: Q01DX009 (ip), vehicle: saline 107 % of control

CCCNC(=O)c1ccc(NC(=O)Nc2ccc(C3=NCCN3)cc2)cc1NC(=O)Nc1ccc(C2=NCCN2)cc1
inactive: endpoint: mean survival time, dose: 25.0 mg/kg/injection, schedule: Q01DX Z (ip), vehicle: carboxymethylcellulose (CMC) 113 % of control | endpoint: mean survival time, dose: 50.0 mg/kg/injection, schedule: Q01DX Z (ip), vehicle: carboxymethylcellulose (CMC) 117 % of control | endpoint: mean survival time, dose: 100.0 mg/kg/injection, schedule: Q01DX Z (ip), vehicle: carboxymethylcellulose (CMC) 108 % of control and 113 % of control

O=C(CC(c1ccccc1)c1c(O)c2ccccc2oc1=O)c1ccccc1 (stereo not drawn)
inactive: endpoint: mean survival time, dose: 0.5 mg/kg/injection, schedule: Q01DX009 (ip), vehicle: saline with Tween-80 95 % of control | endpoint: mean survival time, dose: 1.0 mg/kg/injection, schedule: Q01DX009 (ip), vehicle: saline with Tween-80 97 % of control | endpoint: mean survival time, dose: 2.0 mg/kg/injection, schedule: Q01DX009 (ip), vehicle: saline with Tween-80 100 % of control | endpoint: mean survival time, dose: 4.0 mg/kg/injection, schedule: Q01DX009 (ip), vehicle: saline with Tween-80 104 % of control | [9] 94 % of control | [10] 91 % of control | [11] 101 % of control

Cc1[nH]c2ccc(C(C)(C)c3ccccc3)cc2c1C
inactive: [12] 98 % of control | [13] 91 % of control | [14] 88 % of control

CCCCOC(=O)/C=C/C(=O)OCCCC
inactive: [1] 97 % of control | [2] 101 % of control | [3] 111 % of control

CC(C)CC(=O)CC(O)C(Cl)(Cl)Cl (stereo not drawn)
inactive: [4] 104 % of control | [5] 93 % of control | [15] 93 % of control | [16] 101 % of control

O=C1CCCC2=C1C(c1ccncc1)Nc1ccccc1N2 (stereo not drawn)
inactive: [5] 103 % of control | [15] 117 % of control | [16] 109 % of control

CCCCOC(=O)CCl
inactive: endpoint: mean survival time, dose: 100.0 mg/kg/injection, schedule: Q04DX002 (ip), vehicle: saline with Tween-80 100 % of control | endpoint: mean survival time, dose: 200.0 mg/kg/injection, schedule: Q04DX002 (ip), vehicle: saline with Tween-80 107 % of control

N#Cc1ccccc1C(=O)O
inactive: [12] 95 % of control | [13] 102 % of control | [14] 96 % of control

COc1cc2ccnc(C(OC(=O)c3ccccc3)c3ccc(OCc4ccccc4)cc3)c2cc1OC (stereo not drawn)
inactive: [9] 95 % of control | [10] 88 % of control | [11] 95 % of control

O=[N+]([O-])c1ccc(OCCCOc2ccc(S(=O)(=O)F)cc2)cc1
inactive: endpoint: mean survival time, dose: 100.0 mg/kg/injection, schedule: Q04DX003 (ip), vehicle: saline 102 % of control | endpoint: mean survival time, dose: 200.0 mg/kg/injection, schedule: Q04DX003 (ip), vehicle: saline 102 % of control | endpoint: mean survival time, dose: 400.0 mg/kg/injection, schedule: Q04DX003 (ip), vehicle: saline 106 % of control

OB(O)c1ccccc1
inactive: endpoint: mean survival time, dose: 100.0 mg/kg/injection, schedule: Q01DX009 (ip), vehicle: gum acacia 105 % of control | endpoint: mean survival time, dose: 200.0 mg/kg/injection, schedule: Q01DX009 (ip), vehicle: gum acacia 99 % of control

O=[N+]([O-])c1c[nH]c2ncnc(Cl)c12
inactive: [6] 98 % of control | [7] 89 % of control | [8] 106 % of control

Cc1ccc(N)cc1NC(=O)c1ccccc1
inactive: [7] 106 % of control | [8] 94 % of control | endpoint: mean survival time, dose: 400.0 mg/kg/injection, schedule: Q01DX001 (ip), vehicle: carboxymethylcellulose (CMC) 108 % of control

CN1C(=O)C2C(N=CN2C)N(C)C1=O (stereo not drawn)
inactive: [1] 96 % of control | [2] 90 % of control

O=C(c1cccnc1)c1cc(-c2ccccn2)c(=O)n2ccccc12
inactive: endpoint: median survival time, dose: 25.0 mg/kg/injection, schedule: Q01DX009 (ip), vehicle: saline with Tween-80 100 % of control | endpoint: median survival time, dose: 50.0 mg/kg/injection, schedule: Q01DX009 (ip), vehicle: saline with Tween-80 108 % of control | endpoint: median survival time, dose: 100.0 mg/kg/injection, schedule: Q01DX009 (ip), vehicle: saline with Tween-80 91 % of control | endpoint: median survival time, dose: 200.0 mg/kg/injection, schedule: Q01DX009 (ip), vehicle: saline with Tween-80 95 % of control | endpoint: median survival time, dose: 400.0 mg/kg/injection, schedule: Q01DX009 (ip), vehicle: saline with Tween-80 91 % of control

CS(=O)(=O)OC1CCCCCCC1OS(C)(=O)=O (stereo not drawn)
inactive: endpoint: mean survival time, dose: 50.0 mg/kg/injection, schedule: Q04DX003 (ip), vehicle: Klucel (hydroxypropylcellulose) (HPC) 103 % of control | endpoint: mean survival time, dose: 100.0 mg/kg/injection, schedule: Q01DX001 (ip), vehicle: Klucel (hydroxypropylcellulose) (HPC) 98 % of control | endpoint: mean survival time, dose: 100.0 mg/kg/injection, schedule: Q04DX003 (ip), vehicle: Klucel (hydroxypropylcellulose) (HPC) 104 % of control | endpoint: mean survival time, dose: 200.0 mg/kg/injection, schedule: Q01DX001 (ip), vehicle: Klucel (hydroxypropylcellulose) (HPC) 98 % of control | endpoint: mean survival time, dose: 200.0 mg/kg/injection, schedule: Q04DX003 (ip), vehicle: Klucel (hydroxypropylcellulose) (HPC) 98 % of control | endpoint: mean survival time, dose: 400.0 mg/kg/injection, schedule: Q01DX001 (ip), vehicle: Klucel (hydroxypropylcellulose) (HPC) 104 % of control | endpoint: mean survival time, dose: 400.0 mg/kg/injection, schedule: Q04DX003 (ip), vehicle: Klucel (hydroxypropylcellulose) (HPC) 104 % of control

COC(=O)C[P+](c1ccccc1)(c1ccccc1)c1ccccc1
inactive: endpoint: mean survival time, dose: 15.0 mg/kg/injection, schedule: Q01DX001 (ip), vehicle: saline 93 % of control | endpoint: mean survival time, dose: 30.0 mg/kg/injection, schedule: Q01DX001 (ip), vehicle: saline 89 % of control | endpoint: mean survival time, dose: 60.0 mg/kg/injection, schedule: Q01DX001 (ip), vehicle: saline 86 % of control
